We go through one compound from ChEMBL document CHEMBL5120891, “Beyond Proteolysis-Targeting Chimeric Molecules: Designing Heterobifunctional Molecules Based on Functional Effectors” (J Med Chem, 2022).

SMILES strings stand for the structures.

The assay deals with T1, Macrophage migration inhibitory factor (Homo sapiens) (UniProt P14174).
T1 sequence (whole entry): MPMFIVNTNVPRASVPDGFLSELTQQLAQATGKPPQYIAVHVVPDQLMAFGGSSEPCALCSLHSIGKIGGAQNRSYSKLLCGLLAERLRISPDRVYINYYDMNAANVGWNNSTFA
Kind of assay: LYTAC activity at ASGPR/MIF (unknown origin) by cell based assay.

With `CC(=O)N[C@H]1[C@H](OCCOCCOCCNC(=O)CCOCC(COCCC(=O)NCCOCCOCCO[C@@H]2O[C@H](CO)[C@H](O)[C@H](O)[C@H]2NC(C)=O)(COCCC(=O)NCCOCCOCCO[C@@H]2O[C@H](CO)[C@H](O)[C@H](O)[C@H]2NC(C)=O)NC(=O)CNC(=O)CCCOc2ccc3nc(-c4cn(-c5ccc(O)c(F)c5)nn4)ccc3c2)O[C@H](CO)[C@H](O)[C@@H]1O`, the Activity is over 1 µM.
